Measured values from patent publication US20240101570A1 (AMGEN INC., priority 2020, published 2024).

Key:
[1] = system: HCT116 MTAP null cells; test: HCT116 MTAP null cell proliferation / viability (CellTiter-Glo, 6 days); type: cell-based; conditions: HCT116-MTAP null, 144 h, HCT116 MTAP null cells, 6 days, CellTiter-Glo; read-out: HCT-116 MTAP null IC50
In short: (§1)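 IC50 values derive from sigmoidal dose-response fits, some with Hill slope fixed at −1 and top constrained to 100%, others from 4-parameter logistic models. They reflect CellTiter-Glo viability after 6 days of compound exposure at up to 10 or 50 μM.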

[2] = system: HCT116 WT cells; test: HCT116 WT cell proliferation / viability (CellTiter-Glo, 6 days); type: cell-based; conditions: Homo sapiens, HCT-116, 144 h, HCT116 WT cells, 6 days, CellTiter-Glo; read-out: HCT-116 WT IC50
In short: as §1

SMILES | IC50 [1] [nM] | IC50 [2] [nM]
CC(C)CN(Cc1ccc(Br)nn1)C(=O)c1ccc2nc(N)c3c(c2c1)COC3 [Example 665, 4-amino-N-((6-bromo-3-pyridazinyl)methyl)-N-(2-methylpropyl)-1,3-dihydrofuro[3,4-c]quinoline-8-carboxamide] | 37 | 1250
C[C@@H](c1ncccn1)N(Cc1ccc(C#N)cn1)C(=O)c1ccc2nc(N)c3c(c2c1)COC3 [Example 666, 4-amino-N-((5-cyano-2-pyridinyl)methyl)-N-((1S)-1-(2-pyrimidinyl)ethyl)-1,3-dihydrofuro[3,4-c]quinoline-8-carboxamide] | 687 | > 10000
C[C@H](c1ncn(C)n1)N(Cc1ccc(C(F)F)cn1)C(=O)c1cc2c3c(c(N)nc2cn1)COC3 [Example 667, 4-amino-N-((5-(difluoromethyl)-2-pyridinyl)methyl)-N-((1R)-1-(1-methyl-1H-1,2,4-triazol-3-yl)ethyl)-1,3-dihydrofuro[3,4-c][1,7]naphthyridine-8-carboxamide] | 929 | 7130
Nc1nc2cnc(C(=O)N(Cc3ccc(C(F)(F)F)nn3)C3CC(F)(F)C3)cc2c2c1COC2 [Example 668, 4-amino-N-(3,3-difluorocyclobutyl)-N-((6-(trifluoromethyl)-3-pyridazinyl)methyl)-1,3-dihydrofuro[3,4-c][1,7]naphthyridine-8-carboxamide] | 304 | > 10000
Nc1nc2ccc(C(=O)N(Cc3ccc(C(F)(F)F)nn3)C3CCC3)cc2c2c1COC2 [Example 669, 4-amino-N-cyclobutyl-N-((6-(trifluoromethyl)-3-pyridazinyl)methyl)-1,3-dihydrofuro[3,4-c]quinoline-8-carboxamide] | 73 | 3070
CC(C)CN(Cc1ccc(C(F)(F)F)nn1)C(=O)c1cc2c3c(c(N)nc2cn1)COC3 [Example 670, 4-amino-N-(2-methylpropyl)-N-((6-(trifluoromethyl)-3-pyridazinyl)methyl)-1,3-dihydrofuro[3,4-c][1,7]naphthyridine-8-carboxamide] | 170 | 8020
Nc1nc2cnc(C(=O)N(Cc3ccc(Br)nn3)CC3CC3)cc2c2c1COC2 [Example 671, 4-amino-N-((6-bromo-3-pyridazinyl)methyl)-N-(cyclopropylmethyl)-1,3-dihydrofuro[3,4-c][1,7]naphthyridine-8-carboxamide] | 80 | 3970
CCOc1ccc(CN(CC(C)C)C(=O)c2cc3c4c(c(N)nc3cn2)COC4)nn1 [Example 672, 4-amino-N-((6-ethoxy-3-pyridazinyl)methyl)-N-(2-methylpropyl)-1,3-dihydrofuro[3,4-c][1,7]naphthyridine-8-carboxamide] | 145 | 7460
C[C@H](c1ncccn1)N(Cc1ccc(Br)nn1)C(=O)c1cc2c3c(c(N)nc2cn1)COC3 [Example 673, 4-amino-N-((6-bromo-3-pyridazinyl)methyl)-N-((1R)-1-(2-pyrimidinyl)ethyl)-1,3-dihydrofuro[3,4-c][1,7]naphthyridine-8-carboxamide] | 110 | 3260
Nc1nc2ccc(C(=O)N(Cc3ccc(Br)nn3)CC3CC3)cc2c2c1COC2 [Example 674, 4-amino-N-((6-bromo-3-pyridazinyl)methyl)-N-(cyclopropylmethyl)-1,3-dihydrofuro[3,4-c]quinoline-8-carboxamide] | 73 | 2580
CC(C)N(Cc1ccc(C(F)(F)F)cn1)C(=O)c1cc2c3c(c(N)nc2cn1)COC3 [Example 675, 4-amino-N-(2-propanyl)-N-((5-(trifluoromethyl)-2-pyridinyl)methyl)-1,3-dihydrofuro[3,4-c][1,7]naphthyridine-8-carboxamide] | 66 | 12700
C[C@H](c1ncccn1)N(Cc1ccc(Cl)nn1)C(=O)c1ccc2nc(N)c3c(c2c1)COC3 [Example 676, 4-amino-N-((6-chloro-3-pyridazinyl)methyl)-N-((1R)-1-(2-pyrimidinyl)ethyl)-1,3-dihydrofuro[3,4-c]quinoline-8-carboxamide] | 12 | 316
Cc1nc(CN(C)C(=O)c2ccc3nc(N)c4c(c3c2)COC4)ccc1Br [Example 677, 4-amino-N-((5-bromo-6-methyl-2-pyridinyl)methyl)-N-methyl-1,3-dihydrofuro[3,4-c]quinoline-8-carboxamide] | 243 | > 10000
CC(C)N(Cc1ccc(OC(F)(F)F)cn1)C(=O)c1ccc2nc(N)c3c(c2c1)COC3 [Example 678, 4-amino-N-(2-propanyl)-N-((5-(trifluoromethoxy)-2-pyridinyl)methyl)-1,3-dihydrofuro[3,4-c]quinoline-8-carboxamide] | 40 | 1180
C[C@H](c1ncccn1)N(Cc1ccc(C#N)c(Cl)n1)C(=O)c1ccc2nc(N)c3c(c2c1)COC3 [Example 679, 4-amino-N-((6-chloro-5-cyano-2-pyridinyl)methyl)-N-((1R)-1-(2-pyrimidinyl)ethyl)-1,3-dihydrofuro[3,4-c]quinoline-8-carboxamide] | 5 | 108
COC[C@@H](C)N(Cc1ccc(Br)nn1)C(=O)c1cc2c3c(c(N)nc2cn1)COC3 [Example 680, 4-amino-N-((6-bromo-3-pyridazinyl)methyl)-N-((2R)-1-methoxy-2-propanyl)-1,3-dihydrofuro[3,4-c][1,7]naphthyridine-8-carboxamide] | 91 | 2840
COC[C@@H](C)N(Cc1ccc(Br)nn1)C(=O)c1cnc2nc(N)c3c(c2c1)COC3 [Example 681, 4-amino-N-((6-bromo-3-pyridazinyl)methyl)-N-((2R)-1-methoxy-2-propanyl)-1,3-dihydrofuro[3,4-c][1,8]naphthyridine-8-carboxamide] | 367 | 6490
N#Cc1ccc(CN(CC2CC2)C(=O)c2cc3c4c(c(N)nc3cn2)COC4)nc1 [Example 682, 4-amino-N-((5-cyano-2-pyridinyl)methyl)-N-(cyclopropylmethyl)-1,3-dihydrofuro[3,4-c][1,7]naphthyridine-8-carboxamide] | 87 | 3400
COc1ccc(CN(C(=O)c2cc3c4c(c(N)nc3cn2)COC4)C(C)C)nc1Cl [Example 683, 4-amino-N-((6-chloro-5-methoxy-2-pyridinyl)methyl)-N-(2-propanyl)-1,3-dihydrofuro[3,4-c][1,7]naphthyridine-8-carboxamide] | 235 | > 10000
CC(C)N(Cc1ccc(Br)nn1)C(=O)c1cc2c3c(c(N)nc2cn1)COC3 [Example 684, 4-amino-N-((6-bromo-3-pyridazinyl)methyl)-N-(2-propanyl)-1,3-dihydrofuro[3,4-c][1,7]naphthyridine-8-carboxamide] | 342 | > 10000
COc1nc(CN(C(=O)c2cc3c4c(c(N)nc3cn2)COC4)C(C)C)ccc1Cl [Example 685, 4-amino-N-((5-chloro-6-methoxy-2-pyridinyl)methyl)-N-(2-propanyl)-1,3-dihydrofuro[3,4-c][1,7]naphthyridine-8-carboxamide] | 201 | > 10000
